Laboratory results reported in patent US20070082880A1 (priority 2005, published 2007).

Legend:
PKCθ = PKCθ (Homo sapiens, UniProt Q04759); assay: PKCθ Scintiplate Assay; format: biochemical; conditions: average value when one or more samples were tested
Experimental: This assay detects the phosphorylation of a biotinylated substrate by kinase utilizing radiolabeled ATP (ATP γ P33). The enzyme is either recombinant full length PKCθ (Panvera, P2996) or the purified recombinant active kinase domain of full length PKCθ (amino acids 362-706). The substrate in this assay is a biotinylated peptide with a sequence of biotin-[…]-CONH2. The assay buffer is composed of 100 mM Hepes, pH7.5, 2 mM MgCl2, 20 mM β-glycerophosphate and 0.008% TritonX 100. A reaction mixture of ATP, ATP γ P33 (PerkinElmer), DTT, lipid activator, and the enzyme is prepared in the assay buffer and added to a 96 well polypropylene plate. The compound (diluted in DMSO in a separate 96-well polypropylene plate) is added to the reaction mixture and incubated at room temperature. Following the incubation, the peptide substrate is added to the reaction mixture to initiate the enzymatic reaction. The reaction is terminated with the addition of a stop solution (10 mM EDTA, 0.2% TritonX100, and 100 mM NaHPO4) and transferred from the assay plate to a washed streptavidin-coated 96 well scintiplate (PerkinElmer). The scintiplate is incubated at room temperature, washed in PBS with 0.1% TritonX 100, and counted in the 1450 Microbeta Trilux (Wallac, Version 2.60). Counts are recorded for each well as corrected counts per minute (CCPM). The counts are considered corrected because they are adjusted according to a P33 normalization protocol, which corrects for efficiency and background differences between the instrument detectors (software version 4.40.01).

[1] = biological target: T1, human PKCθ full length enzyme (Homo sapiens, UniProt Q04759); assay: PKCθ IMAP Assay; format: biochemical; conditions: average value when one or more samples were tested; ATP 6 uM, PKCθ 1 nM
T1 construct: human PKCθ full length enzyme (Panvera Catalog No. P2996); purchased Panvera P2996
T1 sequence (Q04759 whole entry): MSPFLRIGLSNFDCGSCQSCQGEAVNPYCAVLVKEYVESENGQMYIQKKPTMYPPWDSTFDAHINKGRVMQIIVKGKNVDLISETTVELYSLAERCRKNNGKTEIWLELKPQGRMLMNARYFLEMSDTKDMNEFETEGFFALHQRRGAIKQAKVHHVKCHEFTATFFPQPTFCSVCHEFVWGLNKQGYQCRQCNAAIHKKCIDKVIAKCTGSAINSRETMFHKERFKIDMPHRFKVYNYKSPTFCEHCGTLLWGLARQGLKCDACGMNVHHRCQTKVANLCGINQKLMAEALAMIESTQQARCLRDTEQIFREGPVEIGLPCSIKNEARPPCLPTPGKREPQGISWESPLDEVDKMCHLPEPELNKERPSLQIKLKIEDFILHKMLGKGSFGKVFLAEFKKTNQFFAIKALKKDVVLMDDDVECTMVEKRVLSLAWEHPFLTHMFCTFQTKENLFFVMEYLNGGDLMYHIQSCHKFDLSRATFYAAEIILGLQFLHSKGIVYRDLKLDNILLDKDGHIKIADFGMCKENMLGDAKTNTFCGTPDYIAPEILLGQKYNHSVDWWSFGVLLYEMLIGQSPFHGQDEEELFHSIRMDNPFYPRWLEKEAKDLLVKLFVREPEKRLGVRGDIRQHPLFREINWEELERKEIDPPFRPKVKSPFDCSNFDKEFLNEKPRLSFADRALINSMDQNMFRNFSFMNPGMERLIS
Method in brief: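 Full-length human PKCθ (1 nM final) with 6 uM ATP and 100 nM 5FAM-labelled peptide, 5% DMSO, 3.0 mM DTT in reaction buffer. 25 min at room temperature; IMAP bead binding 20 min, fluorescence polarization read. Compounds 2:1 serially diluted; no-ATP and no-enzyme wells as controls.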

PKCθ, sequence (Q04759 362-706 limits assumed): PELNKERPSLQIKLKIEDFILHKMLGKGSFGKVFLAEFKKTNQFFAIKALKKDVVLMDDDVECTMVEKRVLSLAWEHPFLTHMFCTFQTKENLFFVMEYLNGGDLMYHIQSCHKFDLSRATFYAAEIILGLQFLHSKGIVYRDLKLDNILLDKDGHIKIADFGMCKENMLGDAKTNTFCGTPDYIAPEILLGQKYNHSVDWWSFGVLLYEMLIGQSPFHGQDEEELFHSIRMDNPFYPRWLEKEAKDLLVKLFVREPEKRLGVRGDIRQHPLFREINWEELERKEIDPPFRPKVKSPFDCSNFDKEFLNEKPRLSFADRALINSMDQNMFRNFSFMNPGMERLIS

Row | Compound | IC50 (PKCθ) [nM] | IC50 [1] [nM] | melting point [°C]
1 | N#Cc1cnc2sc(-c3ccc(CN4CCOCC4)cc3)cc2c1Nc1ccc2[nH]ccc2c1 [Compound 101, 4-(1H-indol-5-ylamino)-2-[(4-morpholin-4-ylmethyl)phenyl]thieno[2,3-b]pyridine-5-carbonitrile] | 370 | 400 | 251 to 253
2 | N#Cc1cnc2sc(-c3ccc(C=O)cc3)cc2c1Nc1ccc2[nH]ccc2c1 [Compound 103, 2-(4-formylphenyl)-4-(1H-indol-5-ylamino)thieno[2,3-b]pyridine-5-carbonitrile] | 51 |  | > 260
3 | N#Cc1cnc2sc(-c3ccccc3)cc2c1Nc1ccc2[nH]ccc2c1 [Compound 107, 4-(1H-indol-5-ylamino)-2-phenylthieno[2,3-b]pyridine-5-carbonitrile] | 79 | 460 | > 245
4 | N#Cc1cnc2sc(-c3ccccc3)cc2c1Nc1cccc2cc[nH]c12 [Compound 109, 4-(1H-indol-7-ylamino)-2-phenylthieno[2,3-b]pyridine-5-carbonitrile] | > 150000 |  | > 245
5 | N#Cc1cnc2sc(-c3ccccc3)cc2c1Nc1cccc2[nH]ccc12 [Compound 115, 4-(1H-indol-4-ylamino)-2-phenylthieno[2,3-b] pyridine-5-carbonitrile] | 120 |  | > 245
6 | N#Cc1cnc2sc(-c3ccccc3)cc2c1NCCc1c[nH]cn1 [Compound 127, 4-{[2-(1H-imidazol-4-yl)ethyl]amino}-2-phenylthieno[2,3-b]pyridine-5-carbonitrile] | 3000 |  | > 245
7 | N#Cc1cnc2sc(-c3ccccc3)cc2c1-c1ccc2[nH]ccc2c1 [Compound 131, 4-(1H-indol-5-yl)-2-phenylthieno[2,3-b]pyridine-5-carbonitrile] | > 300000 |  | > 245
8 | CN1CCN(Cc2ccc(-c3cc4c(Nc5cccc6[nH]ccc56)c(C#N)cnc4s3)cc2)CC1 [Compound 137, 4-(1H-indol-4-ylamino)-2-{4-[(4-methylpiperazin-1-yl)methyl]phenyl}thieno[2,3-b]pyridine-5-carbonitrile] | 82 | 52 | > 245
9 | CN1CCN(Cc2cccc(-c3cc4c(Nc5cccc6[nH]ccc56)c(C#N)cnc4s3)c2)CC1 [Compound 140, 4-(1H-indol-4-ylamino)-2-{3-[(4-methylpiperazin-1-yl)methyl]phenyl}thieno[2,3-b]pyridine-5-carbonitrile] | 34 | 22 | > 245
10 | CN1CCN(Cc2ccccc2-c2cc3c(Nc4ccc5[nH]ccc5c4)c(C#N)cnc3s2)CC1 [Compound 185, 4-(1H-indol-5-ylamino)-2-{2-[(4-methylpiperazin-1-yl)methyl]phenyl} thieno[2,3-b]pyridine-5-carbonitrile] | 530 |  | 226 to 228
11 | N#Cc1cnc2sc(-c3ccc(CN)cc3)cc2c1Nc1ccc2[nH]ccc2c1 [Compound 188, 2-[4-(aminomethyl)phenyl]-4-(1H-indol-5-ylamino)thieno[2,3-b]pyridine-5-carbonitrile] | 27 | 34 | > 260
12 | CN1CCN(Cc2ccc(-c3cc4c(Nc5ccc6[nH]ccc6c5)c(C#N)cnc4s3)nc2)CC1 [Compound 203, 4-(1H-indol-5-ylamino)-2-{5-[(4-methylpiperazin-1-yl)methyl]pyridine-2-yl}thieno[2,3-b]pyridine-5-carbonitrile] | 110 |  | > 245
13 | CN(C)Cc1nc(-c2cc3c(Nc4ccc5[nH]ccc5c4)c(C#N)cnc3s2)cs1 [Compound 208, 2-{2-[(dimethylamino)methyl]-1,3-thiazol-4-yl}-4-(1H-indol-5-ylamino)thieno[2,3-b]pyridine-5-carbonitrile] | 50 | 100 | 
14 | CN(C)C(=O)c1cccc(-c2cc3c(Nc4ccc5[nH]ccc5c4)c(C#N)cnc3s2)n1 [Compound 209, 6-[5-cyano-4-(1H-indol-5-ylamino)thieno[2,3-b]pyridin-2-yl]-N,N-dimethylpyridine-2-carboxamide] | 170 | 150 | 
15 | CN(C)Cc1ccc(-c2cc3c(Nc4ccc5[nH]ccc5c4)c(C#N)cnc3s2)s1 [Compound 211, 2-{5-[(dimethylamino)methyl]-2-thienyl}-4-(1H-indol-5-ylamino)thieno[2,3-b]pyridine-5-carbonitrile] | 34 | 82 | 
16 | N#Cc1cnc2sc(C#Cc3ccccn3)cc2c1Nc1ccc2[nH]ccc2c1 [Compound 213, 4-(1H-indol-5-ylamino)-2-(pyridine-2-ylethynyl)thieno[2,3-b]pyridine-5-carbonitrile] | 75 | 290 | 
17 | N#Cc1cnc2sc(C#Cc3cccnc3)cc2c1Nc1ccc2[nH]ccc2c1 [Compound 214, 4-(1H-indol-5-ylamino)-2-(pyridin-3-ylethynyl)thieno[2,3-b]pyridine-5-carbonitrile] | 16 | 190 | 
18 | CN1CCN(Cc2cccc(C#Cc3cc4c(Nc5ccc6[nH]ccc6c5)c(C#N)cnc4s3)n2)CC1 [Compound 216, 4-(1H-indol-5-ylamino)-2-({6-[(4-methylpiperazin-1-yl)methyl]pyridin-2-yl}ethynyl)thieno[2,3-b]pyridine-5-carbonitrile] | 90 | 320 | 
19 | CN(C)Cc1cccc(C#Cc2cc3c(Nc4ccc5[nH]ccc5c4)c(C#N)cnc3s2)n1 [Compound 217, 2-({6-[(dimethylamino)methyl]pyridin-2-yl}ethynyl)-4-(1H-indol-5-ylamino)thieno[2,3-b]pyridine-5-carbonitrile] | 59 | 69 | 
20 | N#Cc1cnc2sc(C#Cc3cccnc3)cc2c1Nc1cccc2[nH]ccc12 [Compound 218, 4-(1H-indol-4-ylamino)-2-(pyridin-3-ylethynyl)thieno[2,3-b]pyridine-5-carbonitrile] | 34 | 52 | 
21 | CN1CCN(CCC#Cc2cc3c(Nc4cccc5[nH]ccc45)c(C#N)cnc3s2)CC1 [Compound 222, 4-(1H-indol-4-ylamino)-2-[4-(4-methylpiperazin-1-yl)but-1-yn-1-yl]thieno[2,3-b]pyridine-5-carbonitrile] | 170 | 150 | 
22 | CN(C)CC#Cc1cc2c(Nc3ccc4[nH]ccc4c3)c(C#N)cnc2s1 [Compound 223, 2-[3-(dimethylamino)prop-1-yn-1-yl]-4-(1H-indol-5-ylamino)thieno[2,3-b]pyridine-5-carbonitrile] | 88 | 1400 | 
23 | CCN(CC)CC#Cc1cc2c(Nc3ccc4[nH]ccc4c3)c(C#N)cnc2s1 [Compound 225, 2-[3-(diethylamino)prop-1-yn-1-yl]-4-(1H-indol-5-ylamino)thieno[2,3-b]pyridine-5-carbonitrile] | 220 | 440 | 
24 | N#Cc1cnc2sc(C#Cc3ccncc3)cc2c1Nc1ccc2[nH]ccc2c1 [Compound 226, 4-(1H-indol-5-ylamino)-2-(pyridin-4-ylethynyl)thieno[2,3-b]pyridine-5-carbonitrile] | 76 | 570 | 
25 | N#Cc1cnc2sc(C#Cc3cn[nH]c3)cc2c1Nc1ccc2[nH]ccc2c1 [Compound 227, 4-(1H-indol-5-ylamino)-2-(1H-pyrazol-4-ylethynyl)thieno[2,3-b]pyridine-5-carbonitrile] | 150 | 290 | 
26 | CN1CCN(CCC#Cc2csc3ncc(C#N)c(Nc4ccc5[nH]ccc5c4)c23)CC1 [Compound 244, 4-(1H-indol-5-ylamino)-3-[4-(4-methylpiperazin-1-yl)but-1-yn-1-yl]thieno[2,3-b]pyridine-5-carbonitrile] | 560 | 570 | 184 to 186
